From ChEMBL document CHEMBL1201862, “PubChem BioAssay data set” (2004)
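Protocol summary: plate cells (96-well), add compound at 5 concentrations, incubate 48 h, interpolate endpoints linearly. GI50 marks 50% less growth.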 Active and inactive are the calls of the source. Cut-off read from the data, not from the text of the source: active = GI50 up to about 1.1 µM and inactive = higher.

Tests used:
Assay in all cases: NCI tumour cell line growth inhibition, 48 h
NCI-H226 = tested on: NCI-H226
UACC-257 = tested on: UACC-257
SK-MEL-5 = tested on: SK-MEL-5
Malme-3M = tested on: Malme-3M
HT-29 = tested on: HT-29
A498 = tested on: A498
UACC-62 = tested on: UACC-62
HCT-15 = tested on: HCT-15
TK-10 = tested on: TK-10
T47D = tested on: T47D
CCRF-CEM = tested on: CCRF-CEM
NCI/ADR-RES = tested on: NCI/ADR-RES
RXF 393 = tested on: RXF 393
RPMI-8226 = tested on: RPMI-8226
SK-MEL-28 = tested on: SK-MEL-28
KM12 = tested on: KM12
HCC 2998 = tested on: HCC 2998
SN12C = tested on: SN12C
MDA-N = tested on: MDA-N

## COc1cc2cc(C(=O)N3CC(CCl)c4c3cc(O)c3ccccc43)[nH]c2c(OC)c1OC (stereo unspecified)
NCI-H226
  GI50: < 0.005 µM (active)
UACC-257
  GI50: < 0.005 µM (active)
SK-MEL-5
  GI50: < 0.005 µM (active)
Malme-3M
  GI50: < 0.005 µM (active)
HT-29
  GI50: < 0.005 µM (active)
A498
  GI50: < 0.005 µM (active)
UACC-62
  GI50: < 0.005 µM (active)
HCT-15
  GI50: < 0.005 µM
TK-10
  GI50: < 0.005 µM (active)
T47D
  GI50: < 0.005 µM (active)
CCRF-CEM
  GI50: < 0.005 µM (active)
NCI/ADR-RES
  GI50: < 0.005 µM (active)
RXF 393
  GI50: < 0.005 µM (active)
RPMI-8226
  GI50: < 0.005 µM (active)
SK-MEL-28
  GI50: < 0.005 µM (active)
KM12
  GI50: < 0.005 µM (active)
HCC 2998
  GI50: < 0.005 µM (active)

## O=C1CCCc2c1c1c(n2Cc2ccccc2)-c2ccccc2C1=O
NCI-H226
  GI50: 21.6 µM (inactive)
UACC-257
  GI50: 17.3 µM (inactive)
SK-MEL-5
  GI50: 18.7 µM (inactive)
SN12C
  GI50: 19.3 µM (inactive)
Malme-3M
  GI50: 15.3 µM (inactive)
HT-29
  GI50: 31.1 µM (inactive)
UACC-62
  GI50: 17.9 µM (inactive)
HCT-15
  GI50: 15 µM
TK-10
  GI50: 10.5 µM (inactive)
T47D
  GI50: 5.93 µM (inactive)
CCRF-CEM
  GI50: 31 µM (inactive)
NCI/ADR-RES
  GI50: 21.1 µM (inactive)
RXF 393
  GI50: 29.9 µM (inactive)
RPMI-8226
  GI50: 3.14 µM (inactive)
SK-MEL-28
  GI50: 33.3 µM (inactive)
KM12
  GI50: 17.9 µM (inactive)
HCC 2998
  GI50: 15.2 µM (inactive)

## CCOC(=O)/C(=C\NCC(O)c1ccccc1)c1nc2ccccc2[nH]1 (stereo unspecified)
UACC-257
  GI50: 19.6 µM (inactive)
SK-MEL-5
  GI50: 11 µM (inactive)
SN12C
  GI50: 31.9 µM (inactive)
Malme-3M
  GI50: 25.6 µM (inactive)
HT-29
  GI50: 21.5 µM (inactive)
MDA-N
  GI50: 27.5 µM (inactive)
A498
  GI50: 20.1 µM (inactive)
UACC-62
  GI50: 14.2 µM (inactive)
HCT-15
  GI50: 21.6 µM
TK-10
  GI50: 26.1 µM (inactive)
CCRF-CEM
  GI50: 13.6 µM (inactive)
NCI/ADR-RES
  GI50: 20.8 µM (inactive)
RXF 393
  GI50: 27.4 µM (inactive)
RPMI-8226
  GI50: 11.3 µM (inactive)
SK-MEL-28
  GI50: 17.2 µM (inactive)
KM12
  GI50: 21.6 µM (inactive)
HCC 2998
  GI50: 20.4 µM (inactive)

## CN1C(=O)C(O)CC1c1cccc(C(F)(F)F)c1 (stereo unspecified)
NCI-H226
  GI50: > 100 µM (inactive)
UACC-257
  GI50: > 100 µM (inactive)
SK-MEL-5
  GI50: > 100 µM (inactive)
SN12C
  GI50: > 100 µM (inactive)
Malme-3M
  GI50: > 100 µM (inactive)
HT-29
  GI50: > 100 µM (inactive)
A498
  GI50: > 100 µM (inactive)
UACC-62
  GI50: > 100 µM (inactive)
HCT-15
  GI50: > 100 µM
TK-10
  GI50: > 100 µM (inactive)
T47D
  GI50: > 100 µM (inactive)
CCRF-CEM
  GI50: > 100 µM (inactive)
NCI/ADR-RES
  GI50: > 100 µM (inactive)
RXF 393
  GI50: > 100 µM (inactive)
RPMI-8226
  GI50: > 100 µM (inactive)
SK-MEL-28
  GI50: > 100 µM (inactive)
KM12
  GI50: > 100 µM (inactive)
HCC 2998
  GI50: > 100 µM (inactive)

## Cn1c(=O)c2c(nc(N3CCOCC3)n2CCCNCC(O)c2ccc(O)c(O)c2)n(C)c1=O (stereo unspecified)
NCI-H226
  GI50: > 100 µM (inactive)
UACC-257
  GI50: > 100 µM (inactive)
SK-MEL-5
  GI50: > 100 µM (inactive)
SN12C
  GI50: 81.8 µM (inactive)
Malme-3M
  GI50: > 100 µM (inactive)
HT-29
  GI50: > 100 µM (inactive)
A498
  GI50: > 100 µM (inactive)
UACC-62
  GI50: > 100 µM (inactive)
HCT-15
  GI50: > 100 µM
TK-10
  GI50: > 100 µM (inactive)
T47D
  GI50: > 100 µM (inactive)
CCRF-CEM
  GI50: > 100 µM (inactive)
NCI/ADR-RES
  GI50: > 100 µM (inactive)
RXF 393
  GI50: > 100 µM (inactive)
RPMI-8226
  GI50: > 100 µM (inactive)
SK-MEL-28
  GI50: > 100 µM (inactive)
KM12
  GI50: > 100 µM (inactive)

## NC(CCCCNC(=O)CNC(=O)OCc1ccccc1)C(=O)NC(CCCCNC(=O)CNC(=O)OCc1ccccc1)C(=O)NC(CCCCNC(=O)CNC(=O)OCc1ccccc1)C(=O)NC(CCCCNC(=O)CNC(=O)OCc1ccccc1)C(=O)NC(CCCCNC(=O)CNC(=O)OCc1ccccc1)C(=O)NC(CCCCNC(=O)CNC(=O)OCc1ccccc1)C(=O)O (stereo unspecified)
NCI-H226
  GI50: > 75 µM (inactive)
UACC-257
  GI50: > 75 µM (inactive)
SK-MEL-5
  GI50: > 75 µM (inactive)
SN12C
  GI50: > 75 µM (inactive)
Malme-3M
  GI50: > 75 µM (inactive)
HT-29
  GI50: > 75 µM (inactive)
A498
  GI50: > 75 µM (inactive)
UACC-62
  GI50: > 75 µM (inactive)
HCT-15
  GI50: > 75 µM
TK-10
  GI50: > 75 µM (inactive)
T47D
  GI50: > 75 µM (inactive)
CCRF-CEM
  GI50: > 75 µM (inactive)
RPMI-8226
  GI50: > 75 µM (inactive)
SK-MEL-28
  GI50: > 75 µM (inactive)
HCC 2998
  GI50: > 75 µM (inactive)
